Literature values in patent publication US9238611B2, “Process for separating aryl carboxylic acids” (Reliance Industries Limited, priority 2012, dated 2016).

Details: per one milligram of the terephthalate salt

## COc1ccc2c3c1O[C@H]1C(=O)CC[C@@]4(O)[C@@H](C2)N(C)CC[C@]314.COc1ccc2c3c1O[C@H]1C(=O)CC[C@@]4(O)[C@@H](C2)N(C)CC[C@]314.O=C(O)c1ccc(C(=O)O)cc1 [terephthalas oxycodonae]
  amount of hydrochloridum oxycodonae pharmacologically equivalent to one milligram: 1.13 mg
